Experimental data reported in US20090197916A1, “SOLUBLE EPOXIDE HYDROLASE INHIBITORS FOR TREATMENT OF METABOLIC SYNDROME AND RELATED DISORDERS” (Arete Therapeutics, Inc, priority 2007, published 2009).
Blank lines part the entries; values can stand above or below the compound they belong to.

Experiments:
PPARγ = biological target: T1, PPARγ (Homo sapiens, UniProt P37231); test: standard PPARγ activation assay; format: cell-based; details: relative to standard reference
T1 sequence (P37231 1-505): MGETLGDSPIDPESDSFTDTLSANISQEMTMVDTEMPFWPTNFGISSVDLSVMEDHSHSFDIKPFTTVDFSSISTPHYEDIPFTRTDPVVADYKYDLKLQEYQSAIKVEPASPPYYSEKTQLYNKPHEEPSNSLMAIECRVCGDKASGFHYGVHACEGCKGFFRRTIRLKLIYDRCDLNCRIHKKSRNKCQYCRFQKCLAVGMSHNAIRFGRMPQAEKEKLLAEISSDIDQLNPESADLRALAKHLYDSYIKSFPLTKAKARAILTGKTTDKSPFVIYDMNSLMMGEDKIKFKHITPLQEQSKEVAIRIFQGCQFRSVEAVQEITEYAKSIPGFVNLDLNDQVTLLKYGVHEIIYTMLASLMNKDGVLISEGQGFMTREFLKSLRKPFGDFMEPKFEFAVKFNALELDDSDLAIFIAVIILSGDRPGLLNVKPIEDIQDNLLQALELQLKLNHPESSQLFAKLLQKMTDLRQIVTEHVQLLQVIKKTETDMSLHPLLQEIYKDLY

pharmacokinetics in mice = format: in vivo; details: mouse, plasma
[1] = test system: over 100 cardiovascular disease related targets, including hydroxy-methylglutaryl-coenzyme A (HMO CoA) reductase; test: off-target screen assays; details: concentration of 10 μM
sEH [2] = biological target: T2, sEH (Homo sapiens, UniProt P34913); test: sEH enzymatic assay (Compound 6); format: biochemical; details: read-out: IC50 for inhibition of sEH, enzymatic assay
T2 sequence (P34913 1-555): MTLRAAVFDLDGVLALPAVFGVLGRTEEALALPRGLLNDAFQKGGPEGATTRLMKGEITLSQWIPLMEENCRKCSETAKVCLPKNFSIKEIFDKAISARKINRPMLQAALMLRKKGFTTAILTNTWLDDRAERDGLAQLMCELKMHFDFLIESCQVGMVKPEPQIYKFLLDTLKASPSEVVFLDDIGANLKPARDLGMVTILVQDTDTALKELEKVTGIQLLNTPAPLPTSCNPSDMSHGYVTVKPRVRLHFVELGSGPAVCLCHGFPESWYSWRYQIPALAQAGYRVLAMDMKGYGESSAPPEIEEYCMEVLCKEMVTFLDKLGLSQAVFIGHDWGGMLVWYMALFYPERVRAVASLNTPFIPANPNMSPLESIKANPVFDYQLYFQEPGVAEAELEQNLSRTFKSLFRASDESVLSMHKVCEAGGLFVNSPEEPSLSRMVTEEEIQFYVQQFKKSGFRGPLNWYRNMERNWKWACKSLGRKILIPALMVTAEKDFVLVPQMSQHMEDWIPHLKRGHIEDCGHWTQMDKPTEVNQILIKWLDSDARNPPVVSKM

apoE deficient mice = test: Model 3: angiotensin II-infused apoE deficient mice with carotid ligation; format: in vivo
Experimental: All protocols were approved by the institutional animal care and use committee at Arête Therapeutics. Six-month old male apoE deficient mice (The Jackson Laboratory, Bar Harbor, Me.) fed a normal chow were used in this study. Baseline blood pressure and body weight were measured before surgery. Animals were anesthetized by inhalation of 2% isoflurane. The left common carotid artery carefully dissected via a midline neck incision under a dissecting microscope, and the left common carotid artery was ligated with a 6-0 silk ligature just proximal to its bifurcation. At the time of ligation, animals were subcutaneously implanted with a minipump (model 2004, Durect Corp., Cupertino, Calif.) filled with Ang II (1.44 mg/Kg/day, Phoenix Pharmaceuticals, Burlingame, Calif.). The animals were randomly divided into 2 groups; Vehicle: drinking water containing 5% hydroxypropyl-beta-cyclodextrin (HPBCD) or Compound 6: drinking water containing 1.5 mg/ml Compound 6 in 5% HPBCD. Each experimental group included 11 animals. After 4 weeks of Ang TI infusion, systolic blood pressure was measured in conscious mice using a tail-cuff system (Kent Scientific Corporation, Torrington, Conn.), and the animals were euthanized. Blood samples were collected via cardiac puncture for the measurement of a serum cholesterol profile (IDEXX Veterinary Services, West Sacramento, Calif.) and serum inflammatory panel (Murigenics, Hayward, Calif.) using a mouse cytokine/chemokine panel kit (Millipore, Billerica, Mass.), and tissues were removed for analysis.
All results are presented as the mean and standard error (SEM). Comparison between the vehicle and Compound 6 treatment groups was performed using Student's t test. The percentage of mice that developed AAA was compared between the two groups using X^2 test.

whole blood sEH activity = biological target: T3, whole blood sEH activity (Mus musculus, UniProt P34914); test: whole blood sEH activity in apoE KO mice, dosing with drinking water; format: in vivo; details: treatment with drinking water
T3 construct: from tissue; host or cells: whole blood of apoE KO mice
T3 sequence (P34914 1-554): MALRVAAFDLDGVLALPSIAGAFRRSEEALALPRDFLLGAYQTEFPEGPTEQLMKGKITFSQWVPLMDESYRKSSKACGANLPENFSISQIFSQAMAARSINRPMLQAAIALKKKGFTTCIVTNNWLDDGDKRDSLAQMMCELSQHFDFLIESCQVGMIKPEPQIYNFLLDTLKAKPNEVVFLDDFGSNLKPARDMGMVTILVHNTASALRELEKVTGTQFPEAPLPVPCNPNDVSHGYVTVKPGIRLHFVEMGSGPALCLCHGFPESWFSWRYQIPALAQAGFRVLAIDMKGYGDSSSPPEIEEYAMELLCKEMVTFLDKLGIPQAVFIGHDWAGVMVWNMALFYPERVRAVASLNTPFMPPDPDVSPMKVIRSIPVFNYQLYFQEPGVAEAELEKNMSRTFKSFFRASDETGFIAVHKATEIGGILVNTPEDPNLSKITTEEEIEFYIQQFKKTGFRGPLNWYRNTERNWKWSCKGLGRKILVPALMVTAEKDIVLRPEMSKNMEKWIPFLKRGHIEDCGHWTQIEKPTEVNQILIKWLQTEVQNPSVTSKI

sEH [3] = biological target: T2, sEH; test: sEH cell based assay (Compound 6); details: read-out: IC50 for inhibition of sEH, cell based assay
sEH [4] = biological target: T2, sEH; test: sEH inhibition, fluorescent assay with CMNPC substrate (percent inhibition and IC50); format: biochemical; details: Concentration 2000 nM
Experimental: The substrate for the reaction was:
Therefore, well A2 would refer to a well in the first row and second column of the plate.
In a black 96 well plate, all the wells are filled with 150 μL of buffer A (Buffer A: Bis/Tris HCl, 25 mM, pH 7.0 plus 0.1 mg/mL BSA). DMSO (2 microliters) was added in well A2 and A3, and then was added 2 μL of inhibitor solution in A1 and A4 through A12. […] The plate was incubated for 5 minutes in the plate reader at 30° C. During incubation, the working solution of substrate was prepared by mixing 3.68 mL of buffer A with 266 μL of 0.5 mM substrate solution. At t=0, 30 μL of working substrate solution was added and readings were started ([S]final: 5 μM).

- PPARγ activation relative to troglitzone (100%) (PPARγ): 28%
Compound: CCCCCC1OC1C/C=C\C/C=C\C/C=C\CCCC(=O)O (centres unmarked) [14, 15 EET, reference compound]

- PPARγ activation relative to troglitzone (100%) (PPARγ): 11%
- bioavailability (pharmacokinetics in mice; AUC oral dose relative to AUC intravenous dose): > 100%
- half-life (pharmacokinetics in mice; intravenous administration, read-out: terminal half life (converted)): ~4 h
- IC50 (sEH [2]): 1.6 nM
- average plasma concentration (whole blood sEH activity): 21 ± 1.8 µg/mL
- IC50 (sEH [3]): 8.9 nM
- inhibition at 2 µM (sEH [4]): 100%
Compound: O=C(Nc1ccc(OC(F)(F)F)cc1)NC1CCN(C(=O)c2cccnc2)CC1 [Compound 6, 1-(1-nicotinoylpiperidin-4-yl)-3-(4-(trifluoromethoxy)phenyl)urea]
- activity in off-target screen assays [1]: inactive
- HDL levels compared to vehicle (apoE deficient mice; 4 weeks): significantly higher
- effect on blood pressure, body weights, and food consumption (apoE deficient mice; 4 weeks): no statistical significant effect
- ratio of LDL/HDL relative to vehicle group (apoE deficient mice; 4 weeks): only half of that in vehicle group
- total cholesterol level compared to vehicle (apoE deficient mice; 4 weeks): significantly lower
- triglyceride and glucose levels compared to vehicle (apoE deficient mice; 4 weeks): no significant difference
- Ratio of LDL/HDL (apoE deficient mice; 4 weeks, vehicle 19.6 ± 1.5): 10.5 ± 1.5
- body weight (apoE deficient mice; 4 weeks, vehicle 27 ± 0.7): 28 ± 0.6 g
- HDL (apoE deficient mice; 4 weeks, vehicle 32 ± 3): 46 ± 4 mg/dL
- Blood Glucose (apoE deficient mice; 4 weeks, vehicle 216 ± 22): 185 ± 17 mg/dL
- Triglyceride (apoE deficient mice; 4 weeks, vehicle 301 ± 59): 258 ± 47 mg/dL
- LDL (apoE deficient mice; 4 weeks, vehicle 624 ± 70): 438 ± 28 mg/dL
- Blood Pressure (mmHg) Baseline (apoE deficient mice; Baseline, before surgery and treatment): 101 ± 2 mmHg
- Blood Pressure (mmHg) End (apoE deficient mice; End, after 4 weeks of Ang II infusion, vehicle 137 ± 3): 130 ± 4 mmHg
- atherosclerosis progression and aneurysm formation (apoE deficient mice; apoE deficient mice chronically treated with Ang II): attenuated
